Experimental findings from US9382228B2 (priority 2013, dated 2016) are described below.

The target in experiment [1] is unphosphorylated PDGFRβ kinase (uPDGFRβ, Seq. ID No. 3) (Homo sapiens, UniProt P09619). The experiment in a line: biochemical. The settings on record: uPDGFRb, enzymatic assay, ATP 500 μM.
Description: Unphosphorylated PDGFRβ (uPDGFRβ) Kinase (Seq. ID No. 3) Assay
In this assay, the oxidation of NADH (thus the decrease at A340 nm) was continuously monitored spectrophometrically. […] The inhibition reaction was started by mixing serial diluted test compound with the above reaction mixture. The absorption at 340 nm was monitored continuously for 4 h at 30° C. on a Polarstar Optima or Synergy 2 plate reader. The reaction rate was calculated using the 1.5 to 2.5 h time frame. Percent inhibition was obtained by comparison of reaction rate with that of a control (i.e. with no test compound). IC50 values were calculated from a series of percent inhibition values determined at a range of inhibitor concentrations using software routines as implemented in the GraphPad Prism software package.
In experiment [2] the test system is phospho-FMS in THP-1 cells. Nature of the experiment: cells. As to conditions: Homo sapiens, THP-1, read-out: pFMS inhibition in THP-1 cells.
The target of experiment [3] is unphosphorylated c-KIT kinase (uKIT, Seq. ID no. 2) (Homo sapiens, UniProt P10721). The experiment in a line: biochemical. As to conditions: uKIT, enzymatic assay, ATP 2000 μM.
Sequence of unphosphorylated c-KIT kinase (uKIT, Seq. ID no. 2) (P10721 with tags, fused parts or gaps): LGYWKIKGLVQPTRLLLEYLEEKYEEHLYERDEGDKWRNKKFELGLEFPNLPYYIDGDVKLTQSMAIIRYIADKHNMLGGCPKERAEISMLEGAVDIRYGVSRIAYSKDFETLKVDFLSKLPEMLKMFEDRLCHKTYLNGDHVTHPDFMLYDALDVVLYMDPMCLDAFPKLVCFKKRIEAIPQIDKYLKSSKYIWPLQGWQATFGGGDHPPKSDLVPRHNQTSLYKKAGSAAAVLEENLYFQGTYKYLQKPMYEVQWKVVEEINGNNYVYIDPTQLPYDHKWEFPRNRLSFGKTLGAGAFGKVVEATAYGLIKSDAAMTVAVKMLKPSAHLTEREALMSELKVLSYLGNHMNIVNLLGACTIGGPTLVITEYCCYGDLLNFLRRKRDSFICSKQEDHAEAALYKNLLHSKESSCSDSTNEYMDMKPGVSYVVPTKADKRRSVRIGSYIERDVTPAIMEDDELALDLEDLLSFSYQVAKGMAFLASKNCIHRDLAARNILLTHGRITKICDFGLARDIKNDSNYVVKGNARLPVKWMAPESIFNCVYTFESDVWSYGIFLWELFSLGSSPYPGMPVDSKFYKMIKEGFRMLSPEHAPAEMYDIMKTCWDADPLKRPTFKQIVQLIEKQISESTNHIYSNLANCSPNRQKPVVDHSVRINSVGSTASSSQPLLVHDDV
Description: uKit kinase (Seq. ID No. 2) Assay
In this assay, the oxidation of NADH (thus the decrease at A340 nm) was continuously monitored spectrophometrically. […] The inhibition reaction was started by mixing serial diluted test compound with the above reaction mixture. The absorption at 340 nm was monitored continuously for 4 hours at 30° C. on Synergy 2 plate reader (BioTech).
The subject of another experiment is M-NFS-60 cells. The experiment in a line: cells. The settings on record: 67 h, read-out: M-NFS-60 cell proliferation.
Another experiment has as its system osteoclast precursors. Nature of the experiment: cells. The format is cell-based. As to conditions: read-out: Osteoclast assay.
Experiment [4] has as its target T1, unphosphorylated c-FMS kinase (uFMS, Seq. ID no. 1) (Homo sapiens, UniProt P07333).
T1 sequence (P07333 538-972): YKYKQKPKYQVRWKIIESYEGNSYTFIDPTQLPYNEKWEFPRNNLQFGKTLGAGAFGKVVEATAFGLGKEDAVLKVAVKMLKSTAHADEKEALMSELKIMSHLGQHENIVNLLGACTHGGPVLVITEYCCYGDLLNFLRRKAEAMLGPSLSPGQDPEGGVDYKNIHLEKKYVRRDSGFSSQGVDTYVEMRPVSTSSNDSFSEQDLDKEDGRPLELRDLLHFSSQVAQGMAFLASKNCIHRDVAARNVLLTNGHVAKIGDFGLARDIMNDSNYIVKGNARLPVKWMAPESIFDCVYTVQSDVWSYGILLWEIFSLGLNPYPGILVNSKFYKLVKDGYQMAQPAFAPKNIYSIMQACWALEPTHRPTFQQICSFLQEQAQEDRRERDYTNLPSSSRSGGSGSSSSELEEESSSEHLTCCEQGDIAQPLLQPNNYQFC
The experiment in a line: biochemical. As to conditions: uFMS, enzymatic assay, ATP 500 μM.

Sequence of unphosphorylated PDGFRβ kinase (uPDGFRβ, Seq. ID No. 3) (P09619 557-1106): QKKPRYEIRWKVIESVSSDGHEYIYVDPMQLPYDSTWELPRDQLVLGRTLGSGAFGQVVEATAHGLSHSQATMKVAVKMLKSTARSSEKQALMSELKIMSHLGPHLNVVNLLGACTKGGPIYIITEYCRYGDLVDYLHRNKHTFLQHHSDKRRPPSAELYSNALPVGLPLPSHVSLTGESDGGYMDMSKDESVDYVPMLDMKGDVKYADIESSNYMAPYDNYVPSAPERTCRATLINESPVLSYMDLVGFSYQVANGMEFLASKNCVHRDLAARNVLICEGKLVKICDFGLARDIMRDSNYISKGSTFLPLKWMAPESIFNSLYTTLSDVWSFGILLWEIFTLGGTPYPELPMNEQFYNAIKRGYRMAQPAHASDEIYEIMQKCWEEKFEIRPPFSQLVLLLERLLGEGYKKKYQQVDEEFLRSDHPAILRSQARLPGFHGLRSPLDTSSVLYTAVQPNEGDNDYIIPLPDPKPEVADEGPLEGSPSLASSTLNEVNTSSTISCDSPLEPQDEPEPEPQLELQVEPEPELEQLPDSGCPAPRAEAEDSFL
Description for M-NFS-60 cells: M-NFS-6 Cell Proliferation Assay
A serial dilution of test compound was dispensed into a 384-well black clear bottom plate (Corning, Corning, N.Y.). Two thousand five hundred cells were added per well in 50 μL complete growth medium. […] IC50 values were calculated from a series of percent inhibition values determined at a range of inhibitor concentrations using software routines as implemented in the GraphPad Prism software package.

In the case of `Cc1nc(NC(=O)NC(=O)C(C)(C)C)ccc1Oc1ccnc(-c2c[nH]nn2)c1` [Example 171, N-((5-((2-(1H-1,2,3-triazol-4-yl)pyridin-4-yl)oxy)-6-methylpyridin-2-yl)carbamoyl)pivalamide], the IC50 in experiment [1] was above 1 µM; in experiment [2], 0.01 to 0.1 µM; in experiment [3] it was above 1 µM; with M-NFS-60 cells, 0.01 to 0.1 µM; in the experiment with osteoclast precursors, 0.01 to 0.1 µM; in experiment [4], below 0.01 µM.
Regarding `C=CCn1cc(-c2cc(Oc3ccc(NC(=O)NC(=O)C(C)(C)OC)nc3)ccn2)cn1` [Example 172, N-((5-((2-(1-allyl-1H-pyrazol-4-yl)pyridin-4-yl)oxy)pyridin-2-yl)carbamoyl)-2-methoxy-2-methylpropanamide], the IC50 in experiment [1] is above 1 µM; in experiment [2], below 0.01 µM; in experiment [3], 0.1 to 1 µM; in the experiment on M-NFS-60 cells, 0.01 to 0.1 µM; with osteoclast precursors it was below 0.01 µM; in experiment [4], below 0.01 µM.
Turning to `COC(C)(C)C(=O)NC(=O)Nc1ccc(Oc2ccnc(-c3cnc(C(C)C)[nH]3)c2)cn1` [Example 173, N-((5-((2-(2-isopropyl-1H-imidazol-5-yl)pyridin-4-yl)oxy)pyridin-2-yl)carbamoyl)-2-methoxy-2-methylpropanamide], the IC50 in experiment [1] was above 1 µM; in experiment [2] it was below 0.01 µM; in experiment [3] it was above 1 µM; in the experiment on M-NFS-60 cells it was 0.01 to 0.1 µM; with osteoclast precursors, 0.01 to 0.1 µM; in experiment [4] it was 0.01 to 0.1 µM.
As for `Cn1cc(-c2cc(Oc3cnc(NC(=O)NC(=O)C(C)(C)C)nc3)ccn2)cn1` [Example 174, N-((5-((2-(1-methyl-1H-pyrazol-4-yl)pyridin-4-yl)oxy)pyrimidin-2-yl)carbamoyl)pivalamide], the IC50 in experiment [1] was above 1 µM; in experiment [2], 0.01 to 0.1 µM; in experiment [3], 0.1 to 1 µM; with M-NFS-60 cells, 0.01 to 0.1 µM; in the experiment with osteoclast precursors it was 0.01 to 0.1 µM; in experiment [4], 0.01 to 0.1 µM.
Turning to `Cn1cc(-c2cc(Oc3ccc(NC(=O)NC(=O)C4(C)CCOCC4)nc3)ccn2)cn1` [Example 175, 4-methyl-N-((5-((2-(1-methyl-1H-pyrazol-4-yl)pyridin-4-yl)oxy)pyridin-2-yl)carbamoyl)tetrahydro-2H-pyran-4-carboxamide], the IC50 in experiment [1] is 0.1 to 1 µM; in experiment [2], 0.01 to 0.1 µM; in experiment [3], 0.1 to 1 µM; in the experiment with M-NFS-60 cells, 0.01 to 0.1 µM; with osteoclast precursors it was 0.01 to 0.1 µM; in experiment [4], below 0.01 µM.
Turning to `Cn1cc(-c2cc(Oc3cnc(NC(=O)NC(=O)C(C)(C)C)cn3)ccn2)cn1` [Example 176, N-((5-((2-(1-methyl-1H-pyrazol-4-yl)pyridin-4-yl)oxy)pyrazin-2-yl)carbamoyl)pivalamide], the IC50 was above 1 µM in experiment [1]; 0.01 to 0.1 µM in experiment [2]; above 1 µM in experiment [3]; above 1 µM in the experiment with M-NFS-60 cells; 0.01 to 0.1 µM in the experiment with osteoclast precursors; 0.01 to 0.1 µM in experiment [4].
